{"source": "paper PMC12365235", "about": "“Molecular mechanisms of thiazide-like diuretics-mediated inhibition of the human Na-Cl cotransporter” (Nature Communications, 2025)", "molecular_target": "T1, hNCC(WT) (Homo sapiens, UniProt P55017)", "T1 construct": "expressed in transfected cells", "T1 sequence (P55017 1-1021)": "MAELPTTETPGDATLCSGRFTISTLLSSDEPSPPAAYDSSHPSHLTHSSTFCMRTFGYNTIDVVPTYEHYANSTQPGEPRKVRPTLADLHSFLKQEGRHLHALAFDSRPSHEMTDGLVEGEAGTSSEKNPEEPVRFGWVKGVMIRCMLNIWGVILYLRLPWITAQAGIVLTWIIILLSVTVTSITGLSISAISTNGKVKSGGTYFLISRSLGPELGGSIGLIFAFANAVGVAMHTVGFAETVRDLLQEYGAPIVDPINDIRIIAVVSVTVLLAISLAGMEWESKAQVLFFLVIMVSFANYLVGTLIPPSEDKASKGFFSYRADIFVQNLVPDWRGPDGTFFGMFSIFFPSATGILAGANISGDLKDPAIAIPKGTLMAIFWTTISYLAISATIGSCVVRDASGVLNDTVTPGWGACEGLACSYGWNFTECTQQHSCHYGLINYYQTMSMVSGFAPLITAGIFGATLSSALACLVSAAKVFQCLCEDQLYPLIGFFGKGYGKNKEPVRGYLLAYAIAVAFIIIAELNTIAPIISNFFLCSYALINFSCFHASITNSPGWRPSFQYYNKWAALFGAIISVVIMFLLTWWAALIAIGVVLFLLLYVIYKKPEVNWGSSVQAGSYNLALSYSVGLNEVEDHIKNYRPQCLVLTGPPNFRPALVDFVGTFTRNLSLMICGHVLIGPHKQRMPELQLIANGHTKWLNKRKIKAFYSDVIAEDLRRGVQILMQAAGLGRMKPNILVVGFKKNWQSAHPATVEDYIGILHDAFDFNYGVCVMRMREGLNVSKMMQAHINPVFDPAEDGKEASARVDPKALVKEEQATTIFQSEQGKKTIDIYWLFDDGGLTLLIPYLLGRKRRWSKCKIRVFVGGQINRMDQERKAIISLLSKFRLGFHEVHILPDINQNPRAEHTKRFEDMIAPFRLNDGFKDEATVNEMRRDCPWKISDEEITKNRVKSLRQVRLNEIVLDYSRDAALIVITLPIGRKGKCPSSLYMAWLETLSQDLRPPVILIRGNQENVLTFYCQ", "assay": "125I- uptake assay, HEK293S cells stably expressing hNCC(WT)", "type": "cell-based", "conditions": "for apparent affinity compared to polythiazide (times lower): hNCC(WT), Supplementary Fig. 2d", "protocol": "HEK293S cell lines, cultured in 293 Freestyle medium (Life Technologies; plus 10% fetal bovine serum), stably expressing hNCC and its variants were generated following published protocols. Cells were transfected using Lipofectamine 3000 (Invitrogen) with a pSBbi-RP-based plasmid containing hNCC or its variants and the SB100X vector. Puromycin (2 μg/mL; Gemini Bio-Products) was used for selection of stable cell lines.\nTo prepare for the uptake experiment, cells were plated at 0.5 × 10^6 cells/well in 24-well plates one day in advance. To activate NCC, cells were treated with a chloride-free hypotonic solution composed of 67.5 mM sodium-, 2.5 mM potassium-, 0.25 mM magnesium-, and 0.25 mM calcium-gluconate, as well as 7.5 mM HEPES pH 7.4 (buffered using Tris) at 37 °C for 10 min[72]. After the activation step, the experiments were carried out at room temperature. Ten minutes before the start of ^125I^− uptake, 70 μM Bumetanide (Thermo Scientific Chemicals) and 100 μM 4,4′-diisothiocyanatostilbene-2,2′-disulfonic acid (DIDS; Sigma) were added to suppress background iodide uptake activity. Indicated thiazide diuretics were also added to the indicated concentrations 10 min before the start of ^125I^− uptake. The original buffer was switched to an uptake buffer composed of 135 mM Na-gluconate, 5 mM K-gluconate, 1 mM Mg-gluconate, 1 mM Ca-gluconate, 70 μM bumetanide, 100 μM DIDS, 1 mM NaI, 0.25 μCi/ml Na^125I (American Radiolabeled Chemicals, Inc.), and 15 mM HEPES pH 7.4 (buffered using Tris), in the presence or absence of thiazide diuretics to initiate ^125I^− uptake. The ^125I^− uptake process lasted 1 h and was stopped by two rapid washes using ice-cold 110 mM MgCl2. Cells lysed using 1% sodium dodecyl sulfate (SDS) were analyzed by scintillation counting.\nTo calculate the fold change of the half-maximal inhibitory concentration (IC50) between hNCC(WT) and different hNCC variants, individual dose-response curves were normalized first using the smallest mean and the value of the lowest concentration as 0% and 100%, respectively. The normalized data were then fitted using the “EC50 shift” nonlinear regression in GraphPad Prism 10 with the shared EC50Control assigned to be the IC50 of hNCC(WT). The following constraints were used in the EC50 shift analysis. The EC50Control was set to be shared across all curves under analysis and constrained to be greater than 0. The EC50Ratio was constrained to be greater than 0. The bottom, top, and HillSlope were constrained to be 0, 100, and −1, respectively. For Fig. 1f, g and Supplementary Fig. 2d, GraphPad Prism 10 was used to perform curve fitting and IC50 calculation for normalized data using y = 100/(1 + (x/IC50)).", "key": {"[1]": {"conditions": "thiazide-sensitive iodide uptake, HEK293S stable cells, 1 mM extracellular iodide"}}, "note": "Values joined by “and” are separate entries in the source; they are usually repeats but may differ in a detail not shown here. Equal values may be shown once.", "data": [{"smiles": "NS(=O)(=O)c1cc(C2(O)NC(=O)c3ccccc32)ccc1Cl", "note": "(centres unmarked) [chlorthalidone]", "values": [{"measurement": "apparent affinity compared to polythiazide (times lower)", "value": "~ 40 times"}, {"measurement": "IC50", "setting": "[1]", "value": 23, "unit": "nM"}]}, {"smiles": "CN1C(CSCC(F)(F)F)Nc2cc(Cl)c(S(N)(=O)=O)cc2S1(=O)=O", "note": "(centres unmarked) [polythiazide]", "values": [{"measurement": "IC50", "setting": "[1]", "value": "0.58 nM and ~0.5 nM"}]}, {"smiles": "CC1Cc2ccccc2N1NC(=O)c1ccc(Cl)c(S(N)(=O)=O)c1", "note": "(centres unmarked) [indapamide]", "values": [{"measurement": "IC50", "setting": "as quoted in reviewer comment on the earlier manuscript version", "value": 9.3, "unit": "nM"}, {"measurement": "apparent affinity compared to polythiazide (times lower)", "value": "~ 16 times"}]}]}
